Experimental findings from EP0552417B1, “Cyclic peptides and use thereof” (priority 1991, dated 1993) are described below.

Read-outs that look alike come from different tables or passages of the source. Non-standard residues stand in square brackets, D forms with d. Residues, ends and D or L forms follow the SMILES beside them.

For data set [1], the target named is T1, endothelin receptor B (ETB) (Bos taurus, UniProt P28088).
T1 construct: A membrane fraction prepared from the bovine brain; from tissue; host or cells: bovine brain membrane fraction
T1 sequence (P28088 27-441): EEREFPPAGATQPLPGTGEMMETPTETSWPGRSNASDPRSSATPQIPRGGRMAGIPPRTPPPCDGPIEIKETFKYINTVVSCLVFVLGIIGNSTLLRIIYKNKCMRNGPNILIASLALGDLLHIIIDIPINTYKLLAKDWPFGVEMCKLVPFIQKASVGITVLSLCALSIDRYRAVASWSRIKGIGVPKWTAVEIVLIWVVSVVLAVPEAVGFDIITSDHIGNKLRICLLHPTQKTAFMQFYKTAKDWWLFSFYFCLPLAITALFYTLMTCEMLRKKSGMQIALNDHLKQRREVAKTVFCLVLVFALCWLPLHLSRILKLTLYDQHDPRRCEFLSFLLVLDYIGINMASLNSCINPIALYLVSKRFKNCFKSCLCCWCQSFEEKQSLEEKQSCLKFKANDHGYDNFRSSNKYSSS
In words: Assay of affinity for receptor (2): binding activity on ETB receptor *1, 125I-labeled endothelin-1, bovine brain membrane fraction. Conditions: specific activity, taking the binding activity of the compound of Example 8 on receptor B as 100, 25°C, 1 hour. The protocol:
Assay of Affinity for Receptor (2) ... Binding Activity on ETB Receptor *1
A membrane fraction prepared from the bovine brain was diluted to 0.15 mg/ml by using a buffer solution for assay, and 100 µl of the resulting suspension of the membrane fraction was poured into each assay tube to use for assay. To this suspension of the membrane fraction was added 2 µl of 5 nM ^125I labeled endothelin-1 solution. Further, 3 µl of a test peptide solution was added thereto, followed by incubation at a temperature of 25°C for 1 hour. Then, the resulting suspension was diluted with 900 µl of the buffer solution for assay cooled with ice, and thereafter separated into a supernatant and a precipitate by centrifugation at 12,000 X g for 10 minutes. Cell membranes and an endothelin receptor B (ETB) embedded therein were contained in the precipitate, and radioactive iodine-labeled endothelin bound to the receptor was also recovered in the precipitate. Accordingly, the amount of radioactive iodine-labeled endothelin bound to the endothelin receptor B (ETB) was determined by measuring the amount of radioactive iodine contained in the precipitate with a gamma-ray counter. The numerical value of ETB shown in Table 1 is the value of specific activity, taking the binding activity of the compound of Example 8 on the receptor B as 100.

Data set [2] concerns the target T2, endothelin receptor A (ETA) (Sus scrofa, UniProt Q29010).
T2 construct: A membrane fraction prepared from the porcine heart; from tissue; host or cells: porcine heart membrane fraction
T2 sequence (Q29010 21-427): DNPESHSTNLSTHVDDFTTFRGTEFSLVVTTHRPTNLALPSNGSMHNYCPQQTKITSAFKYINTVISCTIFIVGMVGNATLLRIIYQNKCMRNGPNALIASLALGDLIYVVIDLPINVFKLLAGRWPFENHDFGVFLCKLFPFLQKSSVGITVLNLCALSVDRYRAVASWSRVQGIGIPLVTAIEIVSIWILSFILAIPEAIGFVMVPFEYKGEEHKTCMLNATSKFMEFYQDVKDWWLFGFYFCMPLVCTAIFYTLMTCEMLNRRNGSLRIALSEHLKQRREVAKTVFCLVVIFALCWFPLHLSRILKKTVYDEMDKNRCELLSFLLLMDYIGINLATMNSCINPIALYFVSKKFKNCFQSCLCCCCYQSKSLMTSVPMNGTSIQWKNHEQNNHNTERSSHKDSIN
Kind of data set: Assay of affinity for receptor (1): binding activity on ETA receptor, 125I-labeled endothelin-1, porcine heart membrane fraction. Set-up: key: relative specific activity; reference cyclic pentapeptide ETA binding = 1.0. Conditions: specific activity, taking the binding activity of control cyclo[-D-Glu-Ala-D-aIle-Leu-D-Trp-] on receptor A as 1.0, 25°C, 1 hour. How it is done: Assay of Affinity for Receptor (1) ... Binding Activity on ETA Receptor
A membrane fraction prepared from the porcine heart was diluted to 0.15 mg/ml by using a buffer solution for assay, and 100 µl of the resulting suspension of the membrane fraction was poured into each assay tube to use for assay. To this suspension of the membrane fraction was added 2 µl of 5 nM ^125I-labeled endothelin-1 solution. Further, 3 µl of a test peptide solution was added thereto, followed by incubation at a temperature of 25°C for 1 hour. Then, the resulting suspension was diluted with 900 µl of the buffer solution for assay cooled with ice, and thereafter separated into a supernatant and a precipitate by centrifugation at 12,000 X g for 10 minutes. Cell membranes and an endothelin receptor A (ETA) embedded therein were contained in the precipitate, and radioactive iodine-labeled endothelin combined with the receptor was also recovered in the precipitate. Accordingly, the amount of radioactive iodine-labeled endothelin combined with the endothelin receptor A (ETA) was determined by measuring the amount of radioactive iodine contained in the precipitate with a gamma-ray counter. The cyclic pentapeptide described in Japanese Patent Application No. 2-413328/1990, cyclo[-D-Glu-Ala-D-aIle-Leu-D-Trp-], was used as a control compound. The numerical value of ETA shown in Table 1 is the value of specific activity, taking the binding activity of this cyclic pentapeptide on the receptor A as 1.0. The binding activity (IC50) of this cyclic pentapeptide on the ETA receptor is 2x10^-6 M.

The next data set has as its system ETB. Kind of data set: ETB radio receptor assay *2, 125I-endothelin-1, guinea pig kidney crude membrane fraction. Type of data set: binding, Guinea pigs. Conditions: relative activity, 37 °C, 90 minutes. How it is done:
ETB Radio Receptor Assay *2
In the endothelin radio receptor assay, guinea pigs' kidneys were used. Guinea pigs (Std Hartrey, male 250 g, Japan SLC Ltd.) were made to have a cerebral concussion and sacrificed by bleeding from carotid arteries to pick up the kidneys and removed fat therefrom to prepare the kidneys. The obtained kidneys were sliced and homogenized by politron homogenizer in 20 ml of 50 mM Tris-HCl buffer [pH 7.4; 20 mM NaHCO3, 0.1 mM PMSF (Phenylmethylsulfonyl Fluoride), 1 mM EDTA (Ethylenediaminetetraacetic acid)] per one kidney. The homogenized kidney was applied to a centrifugation at 1,000 x g for 15 minutes and the supernatant was further applied to a centrifugation for 20 minutes at 30,000 x g. The resulting precipitate was twice washed with 50 mM Tris-HCl buffer (pH 7.4) containing 0.1 mM PMSF, 1 mM EDTA. The resultant was stored at -80 °C as a crude receptor membrane fraction and was used as the suspension in the following buffer when necessary.
740 Bq of ^125I-endothelin-1 (81.4 TBq/mmol, Du Pont, USA) as a radio ligand, the crude membrane fraction (2.1 µg protein) and samples were added to the following buffer. The reaction was performed at 37 °C, for 90 minutes in 0.2 ml of the buffer [50 mM Tris-HCl buffer (pH 7.4) containing 0.1 mM PMSF, 1 mM EDTA, 0.2% bovine serum albumin].
The reaction was stopped by fast filtration on a glass filter (GF/B, Wattman, USA) by Cell Harvestor (290 PHD, Cambridge-Technology, Great Britain), and the filter was three times washed with 50 mM Tris-HCl buffer (pH 7.4). Radio activity remained on the filter was assayed by a gamma counter.

The conditions of data set [3]: amide bond, 18-membered ring, DMF, 4 steps.
Setting [4] is: HONB/DCC preactivation, TEA, 5.0 mM.
Where [5] appears, read: HONB ester (HONB/DCC preactivation)/TEA, 5.0 mM.
Where [6] appears, read: HONB/DCC (preformed ONB ester), TEA, 5.0 mM.
[7] abbreviates: HONB/DCC (preactivation), HCl/dioxane, TEA, 5.0 mM.

On to `CC(C)C[C@@H]1NC(=O)[C@@H](CC(C)C)NC(=O)[C@H](CC(=O)O)NC(=O)[C@H](C)NC(=O)[C@@H](CC(=O)O)NC(=O)[C@@H](Cc2c[nH]c3ccccc23)NC1=O` [Example 1, cyclo[-D-Asp-Ala-Asp-D-Leu-Leu-D-Trp-]] (cyclo(AD[dL]L[dW][dD])), for which, in data set [1], the “Binding Activity on ET Receptor (R. act.) ETB*1” value is 13. In data set [2], the “Binding Activity on ET Receptor (R. act.) ETA” value was determined as 9.7. Moreover, the “Binding Activity on ET Receptor (R. act.) ETB*2” value in the data set on ETB amounted to 2.0.
Take `CC(C)C[C@@H]1NC(=O)[C@@H](CC(C)C)NC(=O)[C@H](CC(=O)O)NC(=O)[C@H](Cc2c[nH]cn2)NC(=O)[C@@H](CC(=O)O)NC(=O)[C@@H](Cc2c[nH]c3ccccc23)NC1=O` [Example 83, Cyclo[-D-Asp-His-Asp-D-Leu-Leu-D-Trp-]] (cyclo(D[dL]L[dW][dD]H)): the “Binding Activity on ET Receptor (R. act.) ETA” value in data set [2] turned out to be 15. In addition, the “Binding Activity on ET Receptor (R. act.) ETB*2” value in the data set with ETB turned out to be 43.
Take `CC(C)C[C@@H]1NC(=O)[C@@H](CC(C)C)NC(=O)[C@H](CC(=O)O)NC(=O)[C@H](Cc2c[nH]c3ccccc23)NC(=O)[C@@H](CC(=O)O)NC(=O)[C@@H](Cc2cn(C)c3ccccc23)NC1=O` [Example 95, Cyclo[-D-Asp-Trp-Asp-D-Leu-Leu-D-Trp(Me)-]]: the “Binding Activity on ET Receptor (R. act.) ETA” value in data set [2] turned out to be 110. Besides, the “Binding Activity on ET Receptor (R. act.) ETB*2” value in the data set with ETB is 330.
As for “H-Acbu-Leu-dTrp-dAsp(OBzl)-Trp-Asp(OBzl)-ONB”, the ring closure, yield after HPLC in data set [3] (the molecule shown is the open-chain precursor, HONB/DCC (preformed ONB ester), TEA, 5.0 mM) is 10.4%.
Turning to cyclo[-D-Asp-Ala-Asp-D-Leu-Leu-D-Trp-], the ring closure, yield after HPLC in data set [3] (setting [4]) was 18.2%.
In turn, “cyclo[-D-Asp-Ala-D-Asp-D-Leu-Leu-D-Trp-]” displayed a ring closure, yield after HPLC in data set [3] (setting [4]) of 15.3%.
On the same count and under the same terms, with “cyclo[-D-Asp-Ala-D-Glu-D-Leu-Leu-D-Trp-]” the figure was 10.8%; with cyclo[-D-Asp-Ala-Glu-D-Leu-Leu-D-Trp-], 24.1%.
For the compound “cyclo[-D-Asp-Asn(CH2CH2-Ind)-Asp-D-Leu-Leu-D-Trp-]”, in data set [3] (HONB/DCC (preactivation), HCl/dioxane, TEA, 3.2 mM), the ring closure, yield after HPLC was determined as 19.4%.
“cyclo[-D-Asp-Asn(CH2CH2-Ind)-Asp-D-Thg(2)-Leu-D-Trp-]” returned a ring closure, yield after HPLC in data set [3] (HONB/DCC preactivation, HCl, TEA, 5.0 mM) of 9.5%.
“cyclo[-D-Asp-Asn(CH2CH2Ph)-Asp-D-Leu-Leu-D-Trp-]”: the ring closure, yield after HPLC in data set [3] (HONB/DCC (preactivation), HCl/dioxane, TEA, 3.5 mM) is 24.1%.
As for “cyclo[-D-Asp-Asn(CH2Ph)-Asp-D-Leu-Leu-D-Trp-]”, in data set [3] (HONB ester (HONB/DCC preactivation)/TEA, 3.5 mM), the ring closure, yield after HPLC was 23.8%.
In the case of cyclo[-D-Asp-Asp-Ala-D-Leu-Leu-D-Trp-], the ring closure, yield after HPLC in data set [3] (setting [5]) turned out to be 17.8%.
On to “cyclo[-D-Asp-Gln(Bzl)-Asp-D-Thg(2)-Leu-D-Trp-]”, for which the ring closure, yield after HPLC in data set [3] (HONB/DCC preactivation, HCl, TEA, 5.1 mM) was found to be 8.8%.
As to cyclo[-D-Asp-Glu-Ala-D-Leu-Leu-D-Trp-], the ring closure, yield after HPLC in data set [3] (setting [5]) was found to be 20.6%.
For cyclo[-D-Asp-Gly-Ala-D-Leu-Leu-D-Trp-], the ring closure, yield after HPLC in data set [3] (HONB ester (HONB/DCC preactivation)/TEA, 5.9 mM) is 19.2%.
“cyclo[-D-Asp-Hyp(Bzl)-Asp-D-Thg(2)-Leu-D-Trp-]”: in data set [3] (setting [6]), the ring closure, yield after HPLC stood at 5.7%.
Regarding “cyclo[-D-Asp-Orn(COCH2-Ind)-Asp-D-Leu-Leu-D-Trp-]”, in data set [3] (HONB/DCC (preformed ONB ester), TEA, 4.9 mM), the ring closure, yield after HPLC amounted to 12.5%.
On to “cyclo[-D-Asp-Orn(COCH2CH2Ph)-Asp-D-Leu-Leu-D-Trp-]”, for which the ring closure, yield after HPLC in data set [3] (HONB/DCC (preformed ONB ester), TEA, 5.1 mM) came to 40.9%.
“cyclo[-D-Asp-Orn(COCH2Ph)-Asp-D-Leu-Leu-D-Trp-]” yielded a ring closure, yield after HPLC in data set [3] (HONB/DCC (preformed ONB ester), TEA, 4.7 mM) of 2.9%.
The compound “cyclo[-D-Asp-Orn(COPh)-Asp-D-Leu-Leu-D-Trp-]” displayed a ring closure, yield after HPLC in data set [3] (setting [6]) of 48.1%.
Compound cyclo[-D-Asp-Pro-Asp-D-Leu-Leu-D-Trp-] gave a ring closure, yield after HPLC in data set [3] (HONB ester (HONB/DCC preactivation)/TEA, 5.1 mM) of 47.4%.
cyclo[-D-Asp-Trp-Asp-D-Leu-Leu-D-Trp-] registered a ring closure, yield after HPLC in data set [3] (setting [5]) of 52.9%.
Turning to “cyclo[-D-Asp-Trp-Asp-D-Thg(2)-Leu-D-Trp-]”, the ring closure, yield after HPLC in data set [3] (HONB/DCC (preactivation), HCl/dioxane, TEA, 5.1 mM) came to 4.6%.
The compound cyclo[-D-Asp-Trp-Asp-D-tLeu-Leu-D-Trp-] yielded a ring closure, yield after HPLC in data set [3] (setting [7]) of 42.8%.
In data set [3] (setting [7]), “cyclo[-D-Asp-Trp-Asp-D-γMeLeu-Leu-D-Trp-]” returned a ring closure, yield after HPLC of 51.5%.
